The values that follow come from paper PMC8836905, “Structural and Biochemical Analysis of the Furan Aldehyde Reductase YugJ from Bacillus subtilis” (International Journal of Molecular Sciences, 2022).

The target of assay [1] is YugJ from Bacillus subtilis (furan aldehyde reductase) (B. subtilis subsp. spizizenii) (UniProt O05239). Description: SEC; gel filtration on Superdex 200 10/300 in 20 mM Tris, pH 8.0, 150 mM NaCl, 5 mM β-mercaptoethanol; eluted between 44 and 158 kDa standards. (In general: SEC sorts molecules by how far they enter the pores of the column.)
Assay [2] deals with T1, YugJ (Bacillus spizizenii, UniProt Z9GGM4DFS4).
T1 construct: full-length residues 1-387; N-terminal His6 tag removed with thrombin; E. coli BL21(DE3); homodimer
In words: X-ray crystal structure. Format: binding.

The target of assay [3] is T1, YugJ. Description: NADPH oxidation at […] nm, HMF reduction. To be noted: 3 mM HMF, 0.2 mM NADPH, Ni2+-bound YugJ, 50 mM HEPES pH 7.4, 150 mM NaCl, 23 °C; presumed competitive. The class given is biochemical.

Chain of YugJ from Bacillus subtilis (furan aldehyde reductase) (O05239 whole entry): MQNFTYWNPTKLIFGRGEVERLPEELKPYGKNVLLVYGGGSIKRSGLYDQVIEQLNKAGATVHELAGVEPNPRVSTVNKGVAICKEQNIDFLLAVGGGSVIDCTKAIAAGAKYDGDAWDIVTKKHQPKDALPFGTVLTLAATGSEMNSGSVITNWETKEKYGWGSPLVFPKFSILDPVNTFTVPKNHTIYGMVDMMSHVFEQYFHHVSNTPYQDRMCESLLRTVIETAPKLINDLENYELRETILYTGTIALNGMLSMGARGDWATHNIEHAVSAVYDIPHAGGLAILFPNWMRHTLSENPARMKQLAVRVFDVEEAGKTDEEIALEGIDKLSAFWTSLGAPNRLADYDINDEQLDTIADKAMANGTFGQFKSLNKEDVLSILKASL

Regarding “YugJ from Bacillus subtilis (furan aldehyde reductase) (from UniProt O05239 1-387) (enzyme)”, in assay [1], the stoichiometry N (commonly the number of molecules, sites or subunits per partner or assembly) is 2.

As for `NC(=O)c1ccc[n+]([C@@H]2O[C@H](COP(=O)(O)OP(=O)(O)OC[C@H]3O[C@@H](n4cnc5c(N)ncnc54)[C@H](OP(=O)(O)O)[C@@H]3O)[C@@H](O)[C@H]2O)c1` [NADP], the X-ray crystal structure result in assay [2] (1.65 Å with nitrate (7W9Z), 1.93 Å with Ni2+, nicotinamide disordered (7W9Y), interdomain cleft) was “we determined the crystal structures of YugJ in complex with NADP in two crystal forms”.

On to `O=[N+]([O-])O` [nitrate], for which, in assay [2] (1.65 Å, with NADP, 0.3 M ammonium nitrate in crystallisation, pH 6.5, near nicotinamide ring, putative substrate site), the X-ray crystal structure result is given as “nitrate ion forms hydrogen bonds with the nicotinamide-linked ribose moiety of NADP”. Further, the “% inhibition at 360 mM lithium nitrate” value in assay [3] is ~ 75%.
